Entries after “also recorded” stand apart in the source; their conditions may differ. One block for each compound: values may come before it.
Columns and labels:
human SK4 [1] = target: T1, human SK4 (Homo sapiens, UniProt O15554); assay: Whole-cell patch-clamp of WT SK4 K+ currents in transfected CHO cells; assay type: cell-based; conditions: WT SK4 currents in absence and presence of 20 μM compound
T1 construct: expressed in transfected cells; host or cells: CHO cells
Protocol: Constructs: For CHO cell transfection, the following were cloned: human SK1, rat SK2, human SK3, and rat calmodulin into the pcDNA3 vector, human SK4 into pEGFP-C1 vector, and PIP4,5-kinase into an IRES-dsRed plasmid. The mutations were introduced using the PCR-based QuikChange™ site-directed mutagenesis (Stratagene®) and were verified by full sequencing of the entire plasmid vector.
Cell Culture and Transfection: Chinese hamster ovary (CHO) cells were grown in Dulbecco's modified Eagle's medium supplemented with 2 millimolar (mM) glutamine, 10% fetal calf serum, and antibiotics. In brief, 40,000 cells seeded on poly-L-lysine-coated glass coverslips (13 millimeter (mm) in diameter) in a 24-multiwell plate were transfected with 0.5 microgram (μg) pEGFP-SK4/0.5 μg mutant SK4, 1.2 μg dsRed-PIP4,5-kinase or with 1 μg SK1/SK2/SK3 together with pIRES-CD8 (0.3 μg) as a marker for transfection. Transfection was performed using TransIT-LT1 Transfection Reagent (Mirus Bio) according to the manufacturer's protocol. For electrophysiology, transfected cells were visualized approximately 40 hours after transfection with a Zeiss Axiovert 35 inverted florescence microscope.
Whole-cell patch-clamp recording: Voltage-clamp recordings were performed using the whole-cell configuration of the patch-clamp technique. Signals were amplified using an […] patch-clamp amplifier (Molecular Devices), sampled at 5 kHz and filtered at 2.4 kHz via a four pole Bessel low pass filter. Data were acquired using pClamp™ 10.5 software in conjunction with an Axon™ DigiData® 1440A interface (Molecular Devices). The patch pipettes were pulled from borosilicate glass (Harvard Apparatus) with a resistance of 3-5 megaohms (MΩ). The intracellular pipette solution contained 130 mM KCl, 5 mM EGTA, 10 mM HEPES, pH 7.3 (adjusted with KOH), and CaCl2 calculated for a final concentration of 1 μM free-Ca^2+, by MAXCHELATOR (WEBMAXC STANDARD) software, with sucrose added to adjust osmolarity to 290 mosM. The external solution (310 mosM) contained 140 mM NaCl, 4 mM KCl, 1.8 mM CaCl2, 1.2 mM MgCl2, 11 mM glucose, and 5.5 mM HEPES adjusted with NaOH to pH 7.3. CHO cells were held at −90 millivolt (mV) and SK4 K^+ currents were activated using a voltage ramp protocol from −100 mV to +60 mV for 150 milliseconds. Electrophysiological data analysis was performed using the Clampfit program (pClamp™ 10.5; Molecular Devices).
Some of the compounds were tested by comparing trace of WT SK4 channel currents in the absence and presence of 20 μM of the tested compound.

human SK4 [2] = target: T1, human SK4; assay: as above; assay type: cell-based; conditions: 10 μM
isolated rat hearts = assay: Langendorff perfused isolated rat hearts: electrophysiology and hemodynamics; conditions: 10 μM
Protocol: (§1) Animals: Adult male Sprague-Dawley rats (n=56, 200-250 grams) and Guinea pigs (n=19, 400-700 grams) obtained from Envigo Laboratories (Jerusalem, Israel) were bred and grown in Ben-Gurion University of the Negev, Israel. Experiments in rats and guinea pigs were approved by the institutional ethics committee of Ben-Gurion University of the Negev, Israel (Protocol No. IL-24-05-2020(D) and were carried out in strict accordance with the Guide for the Care and Use of Laboratory Animals of the National Institutes of Health. The animals were kept under standardized conditions: 12:12 light: dark cycles at 20-24° C. and 30-70% relative humidity.
(§2) Perfused isolated hearts—Langendorff method: The isolated heart experiment setup was performed as described in Etzion et al., Am J Physiol Heart Circ Physiol (2008) 295, H1460-1469; and Mor et al., J Pharmacol Exp Ther (2013) 344, 59-67.]. Briefly, each animal was anesthetized with 2% isoflurane and an intraperitoneal (IP) injection of pentobarbital (60 mg/kg), followed by IP injection of Heparin (1000 U/kg). The heart was rapidly excised and placed into ice-cold Tyrode's buffer solution (consisted of 140 mM NaCl, 5.4 mM KCl, 0.5 mM MgCl2, 2.5 mM CaCl2, 0.39 mM NaH2PO4, 10 mM HEPES and 11 mM glucose, and titrated to pH 7.4 with NaOH). The aorta was cannulated and connected to a pre-heated (37° C.) and oxygenated perfusion system with Tyrode's solution while perfusion pressure was maintained at about 70 mmHg throughout the experiment. Prior to the experiment, the heart was left in Tyrode's solution to stabilize for 20 minutes for hemodynamic measurements, the left atrial appendage was excised, and a collapsed latex balloon was inserted into the left ventricle (LV) through the mitral valve. Once positioned, the balloon was filled with double distilled water reaching an end-diastolic pressure of 10-15 mmHg. Coronary perfusion pressure and LV pressure were recorded by a pressure amplifier (ETH-256C amplifier and B-100 probes, iWorx, NH, USA). Electrophysiological signals were recorded from the high right atrium (HRA) via a miniature quadripolar hook electrode (for simultaneous pacing and recording) and from the LV via a bipolar hook electrode. Electrical signals were filtered (1-2 kHz) and recorded by two voltage amplifiers (Model 3000, A-M Systems, Carlsberg, WA, USA). Signals were interfaced with a PC using an A/D converter (PCI-6024E, National Instruments, Austin TX, USA) and a custom-designed program developed with LabVIEW programing language (National Instruments, Austin, TX, USA) to control signal acquisition, data saving and off-line analysis. Measured physiological parameters during the experiment included perfusion flow (ml/minute) as a marker for coronary perfusion pressure, LV developed pressure, dP/dt±(representing the rate of rise of left ventricular pressure during isovolumetric contraction as a marker for LV contractility), heart rate, PR, and RR intervals. Tram-34 and BA6b9 were applied for a 20-minutes incubation period and physiological parameters were recorded.
(§3) Effective refractory period measurements: Using both custom-made quadripolar electrode inserted on the HRA and two bipolar electrodes (recording and pacing) on the LV, allowed measurement of the effective refractory period (ERP) at the atrial level (atrial effective refractory period, AERP), atrioventricular level (AVERP), and ventricular level (VERP). For ERP measurement, a programmed S1S2 stimulation protocol was performed using double diastolic threshold intensity. The protocol consisted of ten S1-S2 intervals of 150 milliseconds (ms) followed by an S1-S2 interval that was reduced by 1 ms each time, until pacing capture failed three consecutive times. AERP, AVERP, and VERP were measured and recorded prior and after exposure to the used inhibitor, either Tram-34 or BA6b9.

[3] = system: isolated guinea pig hearts; assay: Langendorff perfused isolated guinea pig hearts; conditions: 10 μM
Protocol: as §1, §2, §3

WT SK4 channels = target: T2, WT SK4 channels (Homo sapiens, UniProt O15554); assay: Inside-out macro-patch recording of WT SK4 channels in transfected CHO cells; assay type: cell-based; conditions: 1 μM free-Ca2+
T2 construct: expressed in transfected cells; host or cells: CHO cells
Protocol: Inside-out macro-patch recording: To measure the Ca^2+ concentration dependence for SK4 channel activation, CHO cells were co-transfected with plasmids encoding WT SK4 (1 μg) and WT CaM (1 μg) using the Lipofectamine reagent at a ratio of 1:2. The cells were transfected 48 hours prior to recordings. The patch pipettes were pulled and fire-polished with a MF-900 micro-forge (Narashige) to reach an internal diameter of […]. The resistance of the patch electrodes ranged from 2-3 MΩ. The pipette solution contained 135 mM KCl, 1 mM MgSO4, 0.91 mM CaCl2, and 10 mM HEPES at pH 7.3. The bath solution contained 135 mM KCl, 5 mM EGTA, and 10 mM HEPES at pH 7.3. EGTA was used to titer the different Ca^2+ concentration solutions, calculated using the software by C. Patton of Stanford University (http://maxchelator(dot)stanford(dot)edu/). Currents were recorded by 10 repetitive 1 second duration voltage ramps from −100 mV to +100 mV from a holding potential of 0 mV. The current amplitudes in response to increasing Ca^2+ concentrations were normalized to those obtained at a saturating Ca^2+ concentration (3 μM). Furthermore, to determine the Ca^2+ concentration dependence for activation in the presence of a tested compound, such as the exemplary compound BA6b9 (10 μM), the current amplitudes were normalized to those obtained at large maximal Ca^2+ concentration of 10 μM. For PIP2-dependent activation, PIP2 affinity to the SK4 channel was also examined in the inside-out configuration. The dose-response curve for PIP2 was measured with increasing concentrations of diC8-PIP2 in the presence of 1 μM Ca^2+. The diC8-PIP2 effect on the channel current was measured after complete depletion of the native PIP2 using sonicated poly-L-lysine (PLL) 50 μg/ml and a subsequent 2-minute washout. […] Apparent EC50 values for Ca^2+ or diC8-PIP2 were determined by fitting the data points to a standard dose-response curve Y=100/(1+10^(log EC(50)−X)*HillSlope).
The calcium dependence of the human SK4 K^+ channel in transfected CHO cells was characterized using inside-out macro-patches. The expressed currents were recorded in response to voltage ramps (−100 millivolt (mV) to +100 mV for 1 seconds) and by increasing the free-Ca^2+ concentrations applied to the internal face of the membrane. […]
To examine whether PIP2 is involved in the modulation of the SK4 channel, channel trafficking to the plasma membrane was increased by co-transfecting CHO cells with plasmid DNAs encoding for the channel and for wild type (WT) CaM. The resulting currents were recorded from inside-out macro-patches, where the intracellular solution contained a saturating concentration of 1 μM free-Ca^2+, as shown in FIG. 1B (see, black plot).

WT SK2 channels = WT SK2 channels (Rattus norvegicus, UniProt P70604); conditions: Zhang et al., Nat Chem Biol (2014); cited from earlier work

Compound: Clc1ccccc1C(c1ccccc1)(c1ccccc1)n1cccn1 [Tram-34, 1-[(2-chlorophenyl)diphenylmethyl]-1H-pyrazole, reference compound]
coronary flow (perfusion flow velocity) (isolated rat hearts): significantly lowered | left ventricular filling pressure (developed pressure) (isolated rat hearts): did not affect | maximal pressure change in left ventricular contractility (dP/dt max) (isolated rat hearts): reduces both parameters | minimal pressure change in left ventricular contractility (dP/dt min) (isolated rat hearts): reduces both parameters | AERP (effect) [3]: significantly prolonged | AVERP (effect) [3]: significantly prolonged | action potential activation current (atrial and ventricular pacing thresholds) [3]: Neither Tram-34 nor BA6b9 affected | coronary flow (perfusion flow velocity) [3]: no effect

Compound: CCCCCCCC(=O)OC[C@H](COP(=O)(O)O[C@@H]1[C@H](O)[C@H](O)[C@@H](OP(=O)(O)O)[C@H](OP(=O)(O)O)[C@H]1O)OC(=O)CCCCCCC [diC8-PIP2, dioctanoyl, phosphatidylinositol 4,5 bisphosphate, reference compound]
EC50 (WT SK4 channels; internal application after PIP2 depletion by PLL, read-out: EC50 of activation of WT SK4 channels): 154 nM | EC50 (WT SK2 channels): 1900 nM

Compound: poly-L-lysine hydrochloride [PLL, reference compound]
decrease (inhibition) of SK4 current (WT SK4 channels; 50 μg/ml internal application, 1 minute): 68%

More lines, main results first:

activation (increase) of WT SK4 current (human SK4 [2]): 42% | activation of SK4 channel (fold) (human SK4 [2]; representative trace): about 1.4 fold
Compound: O=c1[nH]c2cc(Cl)c(Cl)cc2[nH]1 [BA40, 5,6-dichloro-1,3-dihydro-2H-benzo[d]imidazol-2-one]
SK4 K+ channel modulating activity (human SK4 [1]): activated; also recorded: activation; also recorded: Activator

activation (increase) of WT SK4 current (human SK4 [2]): 28%
Compound: O=c1[nH]c2ccc(Br)cc2[nH]1 [BA100, 5-bromo-1,3-dihydro-2H-benzo[d]imidazol-2-one]
SK4 K+ channel modulating activity (human SK4 [1]): activated; also recorded: activation; also recorded: Activator

— US20240366571A1, “MODULATORS OF SK4 POTASSIUM CHANNEL AND USES THEREOF” (Ramot at Tel-Aviv University Ltd., priority 2022, published 2024)
